From US20230111310A1, “CARBOXYLIC ACID DERIVATIVE-SUBSTITUTED IMINO ARYL COMPOUND, PREPARATION METHOD THEREFOR, HERBICIDAL COMPOSITION AND USE THEREOF” (Qingdao Kingagroot Chemical Compound Co., Ltd., priority 2020, published 2023)

Columns and labels:
Type in all cases: in vivo
Alopecurus japonicus = test: Weeding effect in post-emergence stage; conditions: Dose 15 g/ha; level of fresh weight growth control rate
Procedure, shortened: (§1)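 Doses of 500, 250, 125, 60, 30, 15 and 7.5 g/ha, with methyl oleate synergist (1.5 liter/ha) and Tween 80 from acetone solution, applied by spray tower post-emergence (2–3 leaf stage). Weed control scored after 3 further greenhouse weeks, averaged over triplicates.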

Digitaria sanguinalis = test: Weeding effect in post-emergence stage; conditions: Dose 15 g/ha; level of fresh weight growth control rate
Procedure, shortened: as §1

Setaria viridis [1] = test: Weeding effect in post-emergence stage; conditions: Dose 15 g/ha; level of fresh weight growth control rate
Procedure, shortened: as §1

Eleusine indica = test: Weeding effect in post-emergence stage; conditions: Dose 15 g/ha; level of fresh weight growth control rate
Procedure, shortened: as §1

Abutilon theophrasti [2] = test: Weeding effect in post-emergence stage; conditions: Dose 15 g/ha; level of fresh weight growth control rate
Procedure, shortened: as §1

Echinochloa crusgalli = test: Weeding effect in post-emergence stage; conditions: Dose 15 g/ha; level of fresh weight growth control rate
Procedure, shortened: as §1

Capsella bursa-pastoris = test: Weeding effect in pre-emergence stage; conditions: 30 g/ha, 4 weeks
Description: (§2) The activity level criteria for plant damage (i.e., growth control rate) are as follows:
(§3) The aforementioned seeds of monocotyledonous and dicotyledonous weeds and main crops were put into a plastic pot loaded with soil and covered with 0.5-2 cm soil. The test compounds of the present invention was dissolved with acetone, then added with tween 80, diluted by a certain amount of water to reach a certain concentration, and sprayed immediately after sowing. The obtained seeds were incubated for 4 weeks in the greenhouse after spraying and the test results were observed. It was observed that the herbicide mostly had excellent effect at the application rate of 500, 250, 125, 60, 30, 15, 7.5 g/ha, especially to weeds such as Echinochloa crusgalli. Digitaria sanguinalis and Abutilon theophrasti, etc. And many compounds had good selectivity for corn, cotton, wheat, rice, soybean, and peanut etc. In addition, evaluate the weed control effect with the above activity standard level.

Descurainia sophia = test: Weeding effect in pre-emergence stage; conditions: 30 g/ha, 4 weeks
Description: as §2, §3

Amaranthus retroflexus = test: Weeding effect in pre-emergence stage; conditions: 30 g/ha, 4 weeks
Description: as §2, §3

Veronica didyma Tenore = test: Weeding effect in pre-emergence stage; conditions: 30 g/ha, 4 weeks
Description: as §2, §3

Setaria viridis [3] = test: Weeding effect in pre-emergence stage; conditions: 30 g/ha, 4 weeks
Description: as §2, §3

Abutilon theophrasti [4] = test: Weeding effect in pre-emergence stage; conditions: 30 g/ha, 4 weeks
Description: as §2, §3

Peanut = test: Pre-emergence stage, crop selectivity; conditions: 30 g/ha, 4 weeks
Description: as §2, §3

corn = test: Pre-emergence stage, crop selectivity; conditions: 30 g/ha, 4 weeks
Description: as §2, §3

Soybeans = test: Pre-emergence stage, crop selectivity; conditions: 30 g/ha, 4 weeks
Description: as §2, §3

cotton = test: Pre-emergence stage, crop selectivity; conditions: 30 g/ha, 4 weeks
Description: as §2, §3

Row | Compound | Weeding effect in post-emergence stage, Alopecurus japonicus (Alopecurus japonicus) | Weeding effect in post-emergence stage, Digitaria sanguinalis (Digitaria sanguinalis) | Weeding effect in post-emergence stage, Setaria viridis (Setaria viridis [1]) | Weeding effect in post-emergence stage, Eleusine indica (Eleusine indica) | Weeding effect in post-emergence stage, Abutilon theophrasti (Abutilon theophrasti [2]) | Weeding effect in post-emergence stage, Echinochloa crusgalli (Echinochloa crusgalli) | activity level (growth control rate) Capsella bursa-pastoris (Capsella bursa-pastoris) | activity level (growth control rate) Descurainia sophia (Descurainia sophia) | activity level (growth control rate) Amaranthus retroflexus (Amaranthus retroflexus) | activity level (growth control rate) Veronica didyma Tenore (Veronica didyma Tenore) | activity level (growth control rate) Setaria viridis (Setaria viridis [3]) | activity level (growth control rate) Abutilon theophrasti (Abutilon theophrasti [4]) | plant damage level Peanut (Peanut) | plant damage level Corn (corn) | plant damage level Soybeans (Soybeans) | plant damage level Cotton (cotton)
1 | CCOC(=O)OC(C)OC(=O)[C@@H](C)O/N=C/c1cc(-n2c(=O)cc(C(F)(F)F)n(C)c2=O)c(F)cc1Cl (stereo partly drawn) [246(R)] | 5 (Level 5: growth control rate is above 85%) | 5 (Level 5: growth control rate is above 85%) | 5 (Level 5: growth control rate is above 85%) | 5 (Level 5: growth control rate is above 85%) | 5 (Level 5: growth control rate is above 85%) | 5 (Level 5: growth control rate is above 85%) | 5 (Level 5: growth control rate is above 85%) | 5 (Level 5: growth control rate is above 85%) | 5 (Level 5: growth control rate is above 85%) | 5 (Level 5: growth control rate is above 85%) | 5 (Level 5: growth control rate is above 85%) | 5 (Level 5: growth control rate is above 85%) | 0 (Level 0: growth control rate is less than 5%) | 0 (Level 0: growth control rate is less than 5%) | 0 (Level 0: growth control rate is less than 5%) | 0 (Level 0: growth control rate is less than 5%)
2 | CC(C)=NOC(=O)[C@@H](C)O/N=C/c1cc(-n2c(=O)cc(C(F)(F)F)n(C)c2=O)c(F)cc1Cl [248(R)] | 5 (Level 5: growth control rate is above 85%) | 5 (Level 5: growth control rate is above 85%) | 5 (Level 5: growth control rate is above 85%) | 5 (Level 5: growth control rate is above 85%) | 5 (Level 5: growth control rate is above 85%) | 5 (Level 5: growth control rate is above 85%) | 5 (Level 5: growth control rate is above 85%) | 5 (Level 5: growth control rate is above 85%) | 5 (Level 5: growth control rate is above 85%) | 5 (Level 5: growth control rate is above 85%) | 5 (Level 5: growth control rate is above 85%) | 5 (Level 5: growth control rate is above 85%) | 0 (Level 0: growth control rate is less than 5%) | 0 (Level 0: growth control rate is less than 5%) | 0 (Level 0: growth control rate is less than 5%) | 0 (Level 0: growth control rate is less than 5%)
3 | CC/C(C)=N/OC(=O)[C@@H](C)O/N=C/c1cc(-n2c(=O)cc(C(F)(F)F)n(C)c2=O)c(F)cc1Cl [249(R)] | 5 (Level 5: growth control rate is above 85%) | 5 (Level 5: growth control rate is above 85%) | 5 (Level 5: growth control rate is above 85%) | 5 (Level 5: growth control rate is above 85%) | 5 (Level 5: growth control rate is above 85%) | 5 (Level 5: growth control rate is above 85%) | 5 (Level 5: growth control rate is above 85%) | 5 (Level 5: growth control rate is above 85%) | 5 (Level 5: growth control rate is above 85%) | 5 (Level 5: growth control rate is above 85%) | 5 (Level 5: growth control rate is above 85%) | 5 (Level 5: growth control rate is above 85%) | 0 (Level 0: growth control rate is less than 5%) | 0 (Level 0: growth control rate is less than 5%) | 0 (Level 0: growth control rate is less than 5%) | 0 (Level 0: growth control rate is less than 5%)
4 | COC/C(C)=N/OC(=O)[C@@H](C)O/N=C/c1cc(-n2c(=O)cc(C(F)(F)F)n(C)c2=O)c(F)cc1Cl [253(R)] | 5 (Level 5: growth control rate is above 85%) | 5 (Level 5: growth control rate is above 85%) | 5 (Level 5: growth control rate is above 85%) | 5 (Level 5: growth control rate is above 85%) | 5 (Level 5: growth control rate is above 85%) | 5 (Level 5: growth control rate is above 85%) | 5 (Level 5: growth control rate is above 85%) | 5 (Level 5: growth control rate is above 85%) | 5 (Level 5: growth control rate is above 85%) | 5 (Level 5: growth control rate is above 85%) | 5 (Level 5: growth control rate is above 85%) | 5 (Level 5: growth control rate is above 85%) | 0 (Level 0: growth control rate is less than 5%) | 0 (Level 0: growth control rate is less than 5%) | 0 (Level 0: growth control rate is less than 5%) | 0 (Level 0: growth control rate is less than 5%)
